According to patent US20250289827A1, “MORPHIC FORMS OF A MUTANT BRAF DEGRADER AND METHODS OF MANUFACTURE THEREOF” (C4 THERAPEUTICS, INC., priority 2022, published 2025):

Tests used:
[1] = Equilibration under a temperature cycle (XRPD); assay type: physicochemical
Protocol: The equilibration was executed with a stirring bar on a magnetic stirring plate at a rate of 300 rpm. The obtained suspensions were filtered through a 0.45 µm nylon membrane filter by centrifugation at 14,000 rpm. Solid parts (wet cakes) were investigated by XRPD.

[2] = Stability study for Compound 1 Form A (storage conditions); assay type: physicochemical
[3] = Acetone, temperature cycle 5° C. to 40° C.
[4] = Acetonitrile, temperature cycle 5° C. to 40° C.
[5] = DMF, temperature cycle 5° C. to 40° C.
[6] = Ethyl acetate, temperature cycle 5° C. to 40° C.
[7] = Isopropanol, temperature cycle 5° C. to 40° C.
[8] = Isopropyl acetate, temperature cycle 5° C. to 40° C.
[9] = Methanol, temperature cycle 5° C. to 40° C.
[10] = THF/heptane (v:v = 1:1), temperature cycle 5° C. to 40° C.
[11] = Toluene, temperature cycle 5° C. to 40° C.
[12] = temperature cycle, Acetone/water (v:v = 86:14) a.w. = 0.6
[13] = temperature cycle, Acetonitrile/water (v:v = 96:4) a.w. = 0.65
[14] = temperature cycle, DCM/methanol (v:v = 1:1)
[15] = temperature cycle, DMF/water (v:v = 30:70) a.w. = 0.9
[16] = temperature cycle, DMF/water (v:v = 73:27) a.w. = 0.6
[17] = temperature cycle, DMSO/water (v:v = 23:77) a.w. = 0.9
[18] = temperature cycle, DMSO/water (v:v = 57:43) a.w. = 0.6
[19] = temperature cycle, Methanol/water (v:v = 69:31) a.w. = 0.6
[20] = temperature cycle, THF/water (v:v = 82:18) a.w. = 0.9
[21] = temperature cycle, THF/water (v:v = 92:8) a.w. = 0.6
[22] = 25° C. ± 2° C./60% RH ± 5% RH, 3 M
[23] = 25° C. ± 2° C./60% RH ± 5% RH, 6 M
[24] = 40° C. ± 2° C./75% RH ± 5% RH, 3 M
[25] = 40° C. ± 2° C./75% RH ± 5% RH, 6 M

CCN(C)S(=O)(=O)Nc1ccc(F)c(Oc2ccc3ncn([C@H]4COC5(CCN(C(=O)CC6(O)CCN(c7cc8c(cc7F)c(N7CCC(=O)NC7=O)nn8C)CC6)CC5)C4)c(=O)c3c2)c1C#N [Compound 1 Form A]
Comments ([1]; 1,4-Dioxane/heptane (v:v = 1:1), temperature cycle 5° C. to 40° C.): Sticky material
XRPD (solid form after equilibration) ([1]; 2-MeTHF, temperature cycle 5° C. to 40° C., about 20 cycles): Form C (about 20
Comments ([1]; 2-MeTHF, temperature cycle 5° C. to 40° C., after about 8 more cycles): Form C converted
Comments [1, 3]: Low crystallinity
XRPD (solid form after equilibration) [1, 3]: Form B
Comments (crystallinity) [1, 4]: Medium
XRPD (solid form after equilibration) [1, 4]: Form B
Comments ([1]; DCM/heptane (v:v = 1:1), temperature cycle 5° C. to 40° C.): Sticky material
Comments [1, 5]: Clear solution
Comments: concentration of clear solution [1, 5]: (About 500 mg/mL)
XRPD (solid form after equilibration) ([1]; Ethanol, temperature cycle 5° C. to 40° C.): Almost amorphous
Comments [1, 6]: Low crystallinity
XRPD (solid form after equilibration) [1, 6]: Form B
Comments [1, 7]: Low crystallinity
XRPD (solid form after equilibration) [1, 7]: Form A
Comments [1, 8]: Low crystallinity
XRPD (solid form after equilibration) [1, 8]: Form A
XRPD (solid form after equilibration) ([1]; MTBE, temperature cycle 5° C. to 40° C.): Almost amorphous
Comments [1, 9]: Low crystallinity
XRPD (solid form after equilibration) [1, 9]: Form B
XRPD (solid form after equilibration) ([1]; Methyl ethyl ketone, temperature cycle 5° C. to 40° C.): Almost amorphous
Comments [1, 10]: Low crystallinity
XRPD (solid form after equilibration) [1, 10]: Form B
Comments [1, 11]: Low crystallinity
XRPD (solid form after equilibration) [1, 11]: Form A
Comments ([1]; temperature cycle, Acetone/water (v:v = 36:64) a.w. = 0.9): Sticky material
Comments [1, 12]: Clear solution
Comments: concentration of clear solution [1, 12]: (About 500 mg/mL)
Comments ([1]; temperature cycle, Acetonitrile/water (v:v = 42:58) a.w. = 0.9): Sticky material
Comments [1, 13]: Medium crystallinity
XRPD [1, 13]: Form B**
Comments [1, 14]: Clear solution
Comments: concentration of clear solution [1, 14]: (About 500 mg/mL)
Comments [1, 15]: Low crystallinity
XRPD [1, 15]: Form B
Comments [1, 16]: Medium crystallinity
XRPD [1, 16]: Form B
Comments [1, 17]: Low crystallinity
XRPD [1, 17]: Form A
Comments [1, 18]: Low crystallinity
XRPD [1, 18]: Form A
Comments [1, 19]: Low crystallinity
XRPD [1, 19]: Form B
Comments [1, 20]: Clear solution
Comments: concentration of clear solution [1, 20]: (About 500 mg/mL)
Comments [1, 21]: Clear solution
Comments: concentration of clear solution [1, 21]: (About 500 mg/mL)
Appearance ([2]; 5 ± 3° C., 6 M): white solid
Assay by UPLC (% w/w) ([2]; 5 ± 3° C., 6 M): 92.0% w/w
Chiral purity by HPLC (% area) ([2]; 5 ± 3° C., 6 M): 99.2% area
Related Substances by UPLC (% area), Total Impurities ([2]; 5 ± 3° C., 6 M): 2.8% area
Water Content by KF (% w/w) ([2]; 5 ± 3° C., 6 M): 4.7% w/w
XRPD ([2]; 5 ± 3° C., 6 M): Form A
Stability study outcome (appearance, water content, chiral purity, assay, related substance) ([2]; 5 ± 3° C., 25° C./60% RH, 30° C./65% RH, 40° C./75% RH): meet the acceptance criteria
Assay by UPLC (% w/w) [2, 22]: 93.3% w/w
Chiral purity by HPLC (% area) [2, 22]: 99.2% area
Related Substances, UPLC (% area), Total Impurities [2, 22]: 2.6% area
Water Content by KF (% w/w) [2, 22]: 3.6% w/w
XRPD [2, 22]: Form A
Assay by UPLC (% w/w) [2, 23]: 92.9% w/w
Chiral purity by HPLC (% area) [2, 23]: 99.2% area
Related Substances, UPLC (% area), Total Impurities [2, 23]: 2.9% area
Water Content by KF (% w/w) [2, 23]: 4.2% w/w
XRPD [2, 23]: Form A
Appearance ([2]; 30 ± 2° C./65 ± 5% RH, 6 M): white solid
Assay by UPLC (% w/w) ([2]; 30 ± 2° C./65 ± 5% RH, 6 M): 92.4% w/w
Chiral purity by HPLC (% area) ([2]; 30 ± 2° C./65 ± 5% RH, 6 M): 99.2% area
Related Substances, UPLC (% area), Total Impurities ([2]; 30 ± 2° C./65 ± 5% RH, 6 M): 3.0% area
Water Content by KF (% w/w) ([2]; 30 ± 2° C./65 ± 5% RH, 6 M): 3.8% w/w
XRPD ([2]; 30 ± 2° C./65 ± 5% RH, 6 M): Form A
Assay by UPLC (% w/w) [2, 24]: 92.2% w/w
Chiral purity by HPLC (% area) [2, 24]: 99.2% area
Related Substances, UPLC (% area), Total Impurities [2, 24]: 2.7% area
Water Content by KF (% w/w) [2, 24]: 3.9% w/w
XRPD [2, 24]: Form A
Assay by UPLC (% w/w) [2, 25]: 92.5% w/w
Chiral purity by HPLC (% area) [2, 25]: 99.2% area
Related Substances, UPLC (% area), Total Impurities [2, 25]: 3.3% area
Water Content by KF (% w/w) [2, 25]: 4.5% w/w
XRPD [2, 25]: Form A
Appearance ([2]; Initial): white solid
Assay by UPLC (% w/w) ([2]; Initial): 97.3% w/w
Chiral purity by HPLC (% area) ([2]; Initial): 99.2% area
Related Substances by UPLC (% area), Total Impurities ([2]; Initial): 2.6% area
Water Content by KF (% w/w) ([2]; Initial): 0.59% w/w
XRPD ([2]; Initial): Form A
Water content trend ([2]; each stability condition): increased overtime
